Test results as given in PubChem BioAssay AID1259407 (Chemical Carcinogenesis Research Information System (CCRIS), 2018).
The source made the active and inactive calls. How the calls were made is not given here.

Tested on: CCRIS mutagenicity, Ames/micronucleus/aberration tests
Experiment: CCRIS mutagenicity studies
[1] = Test System: AMES SALMONELLA TYPHIMURIUM, Strain/Indicator: TA98, Metabolic Activation: NONE, Method: PREINCUBATION
[2] = Test System: AMES SALMONELLA TYPHIMURIUM, Strain/Indicator: TA100, Metabolic Activation: NONE, Method: PREINCUBATION
[3] = Test System: AMES SALMONELLA TYPHIMURIUM, Strain/Indicator: TA1535, Metabolic Activation: NONE, Method: PREINCUBATION
[4] = Test System: AMES SALMONELLA TYPHIMURIUM, Strain/Indicator: TA1537, Metabolic Activation: NONE, Method: PREINCUBATION
[5] = Test System: AMES SALMONELLA TYPHIMURIUM, Strain/Indicator: TA97, Metabolic Activation: NONE, Method: PREINCUBATION

Measured: mutagenic call

O=[N+]([O-])c1cc(Cl)c(Cl)c(Cl)c1Cl
inactive: Test System: AMES SALMONELLA TYPHIMURIUM, Strain/Indicator: TA98, Metabolic Activation: HAMSTER, LIVER, S-9, AROCLOR 1254, Method: PREINCUBATION inactive; negative | [1] inactive; negative | Test System: AMES SALMONELLA TYPHIMURIUM, Strain/Indicator: TA98, Metabolic Activation: RAT, LIVER, S-9, AROCLOR 1254, Method: PREINCUBATION inactive; negative | Test System: AMES SALMONELLA TYPHIMURIUM, Strain/Indicator: TA100, Metabolic Activation: HAMSTER, LIVER, S-9, AROCLOR 1254, Method: PREINCUBATION inactive; negative | [2] inactive; negative | Test System: AMES SALMONELLA TYPHIMURIUM, Strain/Indicator: TA100, Metabolic Activation: RAT, LIVER, S-9, AROCLOR 1254, Method: PREINCUBATION inactive; negative | Test System: AMES SALMONELLA TYPHIMURIUM, Strain/Indicator: TA1535, Metabolic Activation: HAMSTER, LIVER, S-9, AROCLOR 1254, Method: PREINCUBATION inactive; negative | [3] inactive; negative | Test System: AMES SALMONELLA TYPHIMURIUM, Strain/Indicator: TA1535, Metabolic Activation: RAT, LIVER, S-9, AROCLOR 1254, Method: PREINCUBATION inactive; negative | Test System: AMES SALMONELLA TYPHIMURIUM, Strain/Indicator: TA1537, Metabolic Activation: HAMSTER, LIVER, S-9, AROCLOR 1254, Method: PREINCUBATION inactive; negative | [4] inactive; negative | Test System: AMES SALMONELLA TYPHIMURIUM, Strain/Indicator: TA1537, Metabolic Activation: RAT, LIVER, S-9, AROCLOR 1254, Method: PREINCUBATION inactive; negative

C=CC1=C(C)/C(=C/c2[nH]c(Cc3[nH]c(/C=C4\NC(=O)C(C)=C4C=C)c(C)c3CCC(=O)O)c(CCC(=O)O)c2C)NC1=O
inactive: Test System: Ames Salmonella typhimurium, Strain/Indicator: TA98, Metabolic Activation: Liver, S-9, Method: Preincubation inactive; negative | Test System: Ames Salmonella typhimurium, Strain/Indicator: TA98, Metabolic Activation: None, Method: Preincubation inactive; negative | Test System: Ames Salmonella typhimurium, Strain/Indicator: TA100, Metabolic Activation: Liver, S-9, Method: Preincubation inactive; negative | Test System: Ames Salmonella typhimurium, Strain/Indicator: TA100, Metabolic Activation: None, Method: Preincubation inactive; negative | Test System: Ames Salmonella typhimurium, Strain/Indicator: TA102, Metabolic Activation: Liver, S-9, Method: Preincubation inactive; negative | Test System: Ames Salmonella typhimurium, Strain/Indicator: TA102, Metabolic Activation: None, Method: Preincubation inactive; negative

CC(=O)OCc1c2cccc3ccc4cc5cccc6ccc1c(c65)c4c32
active: Test System: AMES SALMONELLA TYPHIMURIUM, Strain/Indicator: TA98, Metabolic Activation: NONE, Method: STANDARD PLATE active; positive
inactive: Test System: AMES SALMONELLA TYPHIMURIUM, Strain/Indicator: TA100, Metabolic Activation: NONE, Method: STANDARD PLATE inactive; negative

CC=C(C)C#N
inactive: Test System: AMES SALMONELLA TYPHIMURIUM, Strain/Indicator: TA97, Metabolic Activation: HAMSTER, LIVER, S-9, AROCLOR 1254 (10 OR 30%), Method: PREINCUBATION inactive; negative | Test System: AMES SALMONELLA TYPHIMURIUM, Strain/Indicator: TA97, Metabolic Activation: HAMSTER, LIVER, S-9, AROCLOR 1254 (30%), Method: PREINCUBATION inactive; negative | [5] inactive; negative | Test System: AMES SALMONELLA TYPHIMURIUM, Strain/Indicator: TA97, Metabolic Activation: RAT, LIVER, S-9, AROCLOR 1254 (10%), Method: PREINCUBATION inactive; negative | Test System: AMES SALMONELLA TYPHIMURIUM, Strain/Indicator: TA98, Metabolic Activation: HAMSTER, LIVER, S-9, AROCLOR 1254 (10%), Method: PREINCUBATION inactive; negative | Test System: AMES SALMONELLA TYPHIMURIUM, Strain/Indicator: TA98, Metabolic Activation: HAMSTER, LIVER, S-9, AROCLOR 1254 (30%), Method: PREINCUBATION inactive; negative | [1] inactive; negative | Test System: AMES SALMONELLA TYPHIMURIUM, Strain/Indicator: TA98, Metabolic Activation: RAT, LIVER, S-9, AROCLOR 1254 (10%), Method: PREINCUBATION inactive; negative | Test System: AMES SALMONELLA TYPHIMURIUM, Strain/Indicator: TA98, Metabolic Activation: RAT, LIVER, S-9, AROCLOR 1254 (30%), Method: PREINCUBATION inactive; negative | Test System: AMES SALMONELLA TYPHIMURIUM, Strain/Indicator: TA100, Metabolic Activation: HAMSTER, LIVER, S-9, AROCLOR 1254 (10%), Method: PREINCUBATION inactive; negative | Test System: AMES SALMONELLA TYPHIMURIUM, Strain/Indicator: TA100, Metabolic Activation: HAMSTER, LIVER, S-9, AROCLOR 1254 (30%), Method: PREINCUBATION inactive; negative | [2] inactive; negative | Test System: AMES SALMONELLA TYPHIMURIUM, Strain/Indicator: TA100, Metabolic Activation: RAT, LIVER, S-9, AROCLOR 1254 (10%), Method: PREINCUBATION inactive; negative | Test System: AMES SALMONELLA TYPHIMURIUM, Strain/Indicator: TA100, Metabolic Activation: RAT, LIVER, S-9, AROCLOR 1254 (30%), Method: PREINCUBATION inactive; negative | Test System: AMES SALMONELLA TYPHIMURIUM, Strain/Indicator: TA1535, Metabolic Activation: HAMSTER, LIVER, S-9, AROCLOR 1254 (10 OR 30%), Method: PREINCUBATION inactive; negative | [3] inactive; negative | Test System: AMES SALMONELLA TYPHIMURIUM, Strain/Indicator: TA1535, Metabolic Activation: RAT, LIVER, S-9, AROCLOR 1254 (10%), Method: PREINCUBATION inactive; negative | Test System: AMES SALMONELLA TYPHIMURIUM, Strain/Indicator: TA1537, Metabolic Activation: HAMSTER, LIVER, S-9, AROCLOR 1254 (30%), Method: PREINCUBATION inactive; negative | [4] inactive; negative | Test System: AMES SALMONELLA TYPHIMURIUM, Strain/Indicator: TA1537, Metabolic Activation: RAT, LIVER, S-9, AROCLOR 1254 (30%), Method: PREINCUBATION inactive; negative

OCC(O)CO
inactive: End Point: IN VITRO CHROMOSOMAL ABERRATIONS, Test System: CHO-WBL CELLS, Metabolic Activation: NONE inactive; negative | [5] inactive; negative | Test System: AMES SALMONELLA TYPHIMURIUM, Strain/Indicator: TA97, Metabolic Activation: RAT, LIVER, S-9, AROCLOR 1254, Method: PREINCUBATION inactive; negative | [1] inactive; negative | Test System: AMES SALMONELLA TYPHIMURIUM, Strain/Indicator: TA98, Metabolic Activation: RAT, LIVER, S-9, KC 500, Method: PREINCUBATION inactive; negative | [2] inactive; negative | Test System: AMES SALMONELLA TYPHIMURIUM, Strain/Indicator: TA100, Metabolic Activation: RAT, LIVER, S-9, KC 500, Method: PREINCUBATION inactive; negative | Test System: AMES SALMONELLA TYPHIMURIUM, Strain/Indicator: TA102, Metabolic Activation: NONE, Method: PREINCUBATION inactive; negative | Test System: AMES SALMONELLA TYPHIMURIUM, Strain/Indicator: TA102, Metabolic Activation: RAT, LIVER, S-9, AROCLOR 1254, Method: PREINCUBATION inactive; negative | [3] inactive; negative | Test System: AMES SALMONELLA TYPHIMURIUM, Strain/Indicator: TA1535, Metabolic Activation: RAT, LIVER, S-9, KC 500, Method: PREINCUBATION inactive; negative | [4] inactive; negative | Test System: AMES SALMONELLA TYPHIMURIUM, Strain/Indicator: TA1537, Metabolic Activation: RAT, LIVER, S-9, KC 500, Method: PREINCUBATION inactive; negative | Test System: AMES SALMONELLA TYPHIMURIUM, Strain/Indicator: TA1538, Metabolic Activation: NONE, Method: PREINCUBATION inactive; negative | Test System: AMES SALMONELLA TYPHIMURIUM, Strain/Indicator: TA1538, Metabolic Activation: RAT, LIVER, S-9, KC 500, Method: PREINCUBATION inactive; negative | Test System: E. COLI, Strain/Indicator: WP2 UVRA, Metabolic Activation: NONE, Method: PREINCUBATION inactive; negative | Test System: E. COLI, Strain/Indicator: WP2 UVRA, Metabolic Activation: RAT, LIVER, S-9, KC 500, Method: PREINCUBATION inactive; negative
